Measurements: PMC6204601, “In Vivo Selectivity and Localization of Reactive Oxygen Species (ROS) Induction by Osmium Anticancer Complexes That Circumvent Platinum Resistance” (Journal of Medicinal Chemistry, 2018)

Key:
A2780 cancer cells [1] = experiment: ROS/superoxide detection by flow cytometry, A2780; conditions: A2780, 24 h, 1.0 × IC50 (pyocyanin positive control 0.1 mM); for % Population Q1 FL1-H- / FL2-H+: superoxide only; for % Population Q3 FL1-H+ / FL2-H-: total ROS only
Method: (§10) Reactive oxygen species (ROS) determination using flow cytometry. The generation of ROS and
(§11) superoxide in A2780 ovarian cancer cells was evaluated using the ROS/Superoxide detection kit (Enzo
(§12) Life Sciences) following the manufacturer’s protocol.
(§13) cells per well, and incubated for 24 h (310 K). After this time, cells were exposed to equipotent
The pellets were re-suspended in 500
(§14) μL PBS and stained with green fluorescent reagent for total ROS reading in the FL1-green channel (2
(§15) μL) and orange fluorescent reagent for superoxide reading in the FL2-red channel (2 μL). Positive
(§16) control samples were treated with pyocyanin (5 μL, 30 min). Single stained positive control samples
(§17) were used for compensation purposes. Data were obtained using a Becton Dickson FACScan Flow
(§18) Cytometer and processed using FlowJo V10 for Windows.

[2] = test system: AB wild-type zebrafish embryos; format: in vivo; conditions: 96 h exposure, read-out: LC50 (Danio rerio) AB-WT
[3] = test system: HOF human ovarian fibroblasts; experiment: Sulforhodamine B antiproliferative assay, HOF; format: cell-based; conditions: 24 h drug exposure + 72 h recovery, SRB; non-cancer fibroblasts
Method: (§1) In vitro biological studies
(§2) Sulforhodamine B cell viability colorimetric assay.
(§3) by ICP-OES analysis for metal content).
(§4) 72 h recovery time (310 K).
(§5) using slowly-running tap water and air dried.
(§6) Data were processed using Microsoft Excel

[4] = test system: HCT116Ox oxaliplatin-resistant colorectal carcinoma cells; experiment: Sulforhodamine B antiproliferative assay, HCT116Ox; format: cell-based, human; conditions: 24 h drug exposure + 72 h recovery, SRB, read-out: Antiproliferative activity (IC50) HCT116Ox Colon
[5] = test system: MRC5 human lung fibroblasts; experiment: Sulforhodamine B antiproliferative assay, MRC5; format: cell-based; conditions: 24 h drug exposure + 72 h recovery, SRB; non-cancer fibroblasts
Method: as §1, §2, §3, §4, §5, §6
IC50 values (concentrations at which […]
After this time, cells were […]

A2780 cancer cells [6] = conditions: A2780, 20 μM verapamil, normalised Os
Method: as §1
Cell culture. All cell lines were obtained from the European Collection of Cell Cultures (ECACC). […]
supplemented with 10% foetal calf serum, 1% 2 mM glutamine and 1% penicillin/streptomycin.
HCT116, HCT1116Ox, HCT116p21-/- and HCT116p53-/-, all of colon origin, were grown in McCoy’s Modified 5A medium supplemented with 10% foetal calf serum, 1% 2 mM glutamine and 1% penicillin/streptomycin. HOF normal ovarian fibroblasts were grown in fibroblast growth medium supplemented with 2% foetal calf serum, 1% 2 mM penicillin/streptomycin and 1% fibroblast growth factor. Cells were grown as adherent monolayers in 75 cm2 culture flasks at 310 K in a 5% CO2 humidified atmosphere and passaged at regular intervals using trypsin-EDTA.
After this time, the cells were washed with PBS and supplied
Sulforhodamine B cell viability colorimetric assay. Briefly, 5000 cells were seeded in a 96-well plate […]
mM) were prepared in medium with 5% v/v DMSO (concentration was determined after drug exposure by ICP-OES analysis for metal content). […] Cell viability was determined using the Sulforhodamine B assay.1 Cells […]
50% cell death occurred) are reported as averages with calculated standard deviations. Experiments were performed in triplicate as part as two independent experiments, and statistics calculated using two-tailed t-test assuming unequal variances (Welch’s t-test). […]

[7] = test system: A549 lung carcinoma cells; experiment: Sulforhodamine B antiproliferative assay, A549; format: cell-based, human; conditions: 24 h drug exposure + 72 h recovery, SRB
[8] = test system: A2780Cis cisplatin-resistant ovarian carcinoma cells; experiment: Sulforhodamine B antiproliferative assay, A2780Cis; format: cell-based, human; conditions: 24 h drug exposure + 72 h recovery, SRB
[9] = test system: Singapore wild-type zebrafish; conditions: 1 or 2× LC50, 96 h, green ROS probe, confocal
Method: (§7) In vivo biological studies […]
(§8) wild-type zebrafish (SGWT) embryos (< 5 dpf). All animals were maintained in accordance with ASPA […]
(§9) maintained. Light cycle: 14 hours day, 10 hours night.
1 L breeding tank. Pairs were set up the previous evening. Males and females were separated by a divider. The divider was removed around 9am (dawn). Embryos were collected and placed into petri dishes with fresh egg water.
Confocal microscopy (zebrafish). […]
or positive control samples.

[10] = test system: HOF human ovarian fibroblasts; experiment: ROS/superoxide detection by flow cytometry, HOF; conditions: 24 h, 1.0 × IC50 (pyocyanin positive control 0.1 mM); for % Population Q2 FL1-H+ / FL2-H+: ROS and superoxide; for % Population Q1 FL1-H- / FL2-H+: superoxide only; for % Population Q3 FL1-H+ / FL2-H-: total ROS only
Method: as §10, §11, §12, §13
The pellets were re-suspended in 500
as §14, §15, §16, §17, §18

[11] = test system: HCT116p21-/- P21-knockout colorectal carcinoma cells; experiment: Sulforhodamine B antiproliferative assay, HCT116p21-/-; format: cell-based, human; conditions: 24 h drug exposure + 72 h recovery, SRB, read-out: Antiproliferative activity (IC50) HCT116p21-/- Colon
[12] = test system: Singapore wild-type zebrafish embryos; format: in vivo, Danio rerio; conditions: for LC50: zebrafish embryos, 96 h exposure, read-out: LC50 (Danio rerio) SG-WT
Method: as §7, §8, §9
1 L breeding tank. Pairs were set up the previous evening. Males and females were separated by a divider. The divider was removed around 9am (dawn). Embryos were collected and placed into petri dishes with fresh egg water. […]

[13] = test system: Tubingen wild-type zebrafish embryos; experiment: Zebrafish embryo toxicity (FET) test, TU-WT; format: in vivo; conditions: 96 h exposure, read-out: LC50 (Danio rerio) TU-WT
[14] = test system: A2780 ovarian carcinoma cells; experiment: Sulforhodamine B antiproliferative assay, A2780; format: cell-based, human; conditions: 24 h drug exposure + 72 h recovery in drug-free medium, SRB; read-out: Antiproliferative activity (IC50) A2780 Ovarian
[15] = test system: HCT116p53-/- P53-knockout colorectal carcinoma cells; experiment: Sulforhodamine B antiproliferative assay, HCT116p53-/-; format: cell-based, human; conditions: 24 h drug exposure + 72 h recovery, SRB, read-out: Antiproliferative activity (IC50) HCT116p53-/- Colon
[16] = test system: HCT116 colorectal carcinoma cells; experiment: Sulforhodamine B antiproliferative assay, HCT116; format: cell-based, human; conditions: 24 h drug exposure + 72 h recovery, SRB; read-out: Antiproliferative activity (IC50) HCT116 Colon
[17] = CV vs Ag/AgCl, 100 mV/s, 10^–3 M, CH3CN; electrochemically reversible
[18] = test system: HCT116 human colorectal cancer cells xenografts; conditions: cited from earlier work

Row | SMILES | % Population Q4 FL1-H- / FL2-H- (A2780 cancer cells [1]) [%] | % Population Q1 FL1-H- / FL2-H+ (A2780 cancer cells [1]) [%] | % Population Q3 FL1-H+ / FL2-H- (A2780 cancer cells [1]) [%] | LC50 [2] [µM] | IC50 [3] [µM] | IC50 [4] [µM] | IC50 [5] [µM] | IC50 [7] [µM] | IC50 [8] [µM] | ROS generated in vivo in zebrafish [9] | % Population Q4 FL1-H- / FL2-H- [10] [%] | % Population Q2 FL1-H+ / FL2-H+ [10] [%] | % Population Q1 FL1-H- / FL2-H+ [10] [%] | % Population Q3 FL1-H+ / FL2-H- [10] [%] | IC50 [11] [µM] | LC50 [12] [µM] | LC50 [13] [µM] | IC50 [14] [µM] | IC50 [15] [µM] | IC50 [16] [µM] | other results
1 | Cc1ccc(C(C)C)cc1.Cc1ccc(S(=O)(=O)[N-]C(c2ccccc2)C([NH-])c2ccccc2)cc1.[Os+2] (stereo not shown) [Complex 1, [Os(p-cymene)(Ts-DPEN)]] | 2.4 ± 0.9 | 1.2 ± 0.2 | 0.3 ± 0.1 | 4.3 ± 0.7 | 29.9 ± 0.5 | 51 ± 2 | 21.4 ± 0.7 | 21.1 ± 0.3 | 21.6 ± 0.2 | elevated levels of ROS | 7.3 ± 0.5 | 38 ± 1 | 9.1 ± 0.8 | 45.4 ± 0.7 | 106 ± 2 | 2.4 ± 0.4 | 2.6 ± 0.3 | 15.5 ± 0.5 | 62 ± 3 | 37 ± 1 | % accumulation (recovery time) 48 h (A2780 cancer cells [6]): 30 ± 2%; % accumulation (recovery time) 72 h (A2780 cancer cells [6]): 17.8 ± 0.3%
2 | CN(C)c1ccc(N=Nc2ccccn2)cc1.Cc1ccc(C(C)C)cc1.F[P-](F)(F)(F)(F)F.[I][Os+] [Complex 10, [Os(Azpy-NMe2)(p-cymene)I]PF6] | 0.41 ± 0.02 | 1.65 ± 0.09 | 2.47 ± 0.08 | 16.8 ± 0.8 | 2.32 ± 0.01 | 0.96 ± 0.05 | 4.5 ± 0.3 | 1.1 ± 0.2 | 0.15 ± 0.01 | elevated levels of ROS | 3.9 ± 0.3 | 61 ± 1 | 11.3 ± 0.5 | 24.1 ± 0.9 | 1.64 ± 0.08 | 24.3 ± 0.4 | 17 ± 1 | 0.15 ± 0.01 | 1.1 ± 0.07 | 0.26 ± 0.03 | First reduction step potential [17]: ca. −0.4 V; Fold less toxic toward zebrafish embryos compared to cisplatin ([12]; LC50 ratio vs cisplatin): 40 ×; Effect on growth of xenografts ([18]; HCT116 xenografts in mice): delay the growth of xenografts; Toxic side effects in xenograft-bearing mice ([18]; xenograft-bearing mice): few toxic side effects
